How the values were obtained:
E. coli = test: EMA as living/dead stain: PCR signal from living and killed E. coli; type: cell-based; settings: for difference in PCR signal intensities between the treated sample and the control: light 10 minutes
Description: Panel B: The signal intensities were determined as pixel values in an 8 bit grayscale by using the program Gel-Pro ANALYZER software (Medica Cybernetics, Silver Spring. Md.). The relative signal intensities for the EMA treated samples are given as a percentage of the untreated samples.
E. coli was killed by ethanol, heat, and formaldehyde to test the effect of EMA as a living/dead stain. In these experiments aliquots of approximately 10^8 cells of E. coli were pelleted in a microcentrifuge at 8000 rpm for 5 minutes, the supernant removed, and the cells resuspended in 50 μl of the respective liquids; water 96% ethanol, and 2% formaldehyde. The ethanol and formaldehyde treated samples were incubated at room temperature, while the water samples were incubated both at room temperature and at 95° C. All samples were incubated at the respective temperatures for 5 minutes.
The bacteria were subsequently pelleted by centrifugation, the supernatant removed, and the cells resuspended in 50 μl water. […]
All the samples were exposed to light for 10 minutes. Subsequently, the samples were resuspended in 500 μl […] (GTC) and 1% sarkosyl containing 1U Dynabeads DNA DIRECT beads (Dynal AS, Oslo, Norway). Incubation was continued at room temperature for an additional 5 minutes. 1 ml 96% ethanol was added, and after 5 minutes the samples were washed twice with 1 ml 70% ethanol. The bead and DNA complex was then resuspended in 50 μl water, and finally heated to 65° C. for 10 minutes to remove residual ethanol. 2% of the purified DNA was used in each amplification reaction as described above.

purified DNA = test: Time series for covalent binding of EMA to DNA, real time quantitative PCR; type: biochemical
Description: (§1) Amplification reactions (50 μl) contained a DNA sample (1-5 μl), 1× TaqMan™ Buffer A, […], 200 μM dATP, dCTP, dGTP, and 400 μM dUTP, 0.1 μM E. coli specific probe, 0.3 μM E. coli specific primers (each), and 2.5 U AmpliTaq GoldT™ DNA polymerase. PCR samples and controls were prepared in triplicates. Reaction tubes were MicroAmp® Optical tubes and tube caps were MicroAmp® Optical caps. All consumables were supplied by PE Biosystems, Foster City, Calif., USA. Before amplification, the PCR mixture was heated to 95° C. for 10 mins to denature the template DNA. Amplification profile: 40 cycles of 95° C. for 20 seconds and 60° C. for one minute. Reactions were performed in the ABI prism® 7700 Sequence Detection System (PE Biosysrems, Foster City, Calif., USA).
(§2) The amplification was plotted as ΔRn, which was the normalized reporter signal (reporter signal minus background), against number of cycles. One then chose a threshold signal, which intersected the amplification curves in the linear region of the semi-log plot. This gave threshold cycles (CT), which is detined as the PCR cycle where an increase in fluorescence first occurred, for each amplification plot. Different amplification could then be compared by their respective threshold cycles.
(§3) The light activation was done on ice with a OSRAM SLG1000 lamp (OSRAM, Norway) with a 650 W halogen light bulb at a distance of 10 cm.
EMA in concentrations 2 ng/μl, 20 ng/μl and 100 ng/μl were added to purified DNA, and exposed to light for 5 s, 15 s, 45 s, 1 min and 3 min. The amount of DNA that could serve as a template was then tested by real time quantitative PCR.

DNA = test: Time to light inactivation of EMA, real time quantitative PCR; type: biochemical; settings: EMA exposed to light for 30 s or more prior to binding to DNA; 2, 20, 100 ng/μl
Description: as §1, §2
The light activation was done on ice with a OSRAM SLG1000 lamp (OSRAM, Norway) with a 650 W halogen light bulb at a distance of 10 cm. […]

E. coil 0157 strain 765 = test: Viable/dead study with EMA, TaqMan PCR; type: cell-based, E. coli; settings: for PCR cycle difference: 100 ng/μl EMA for 5 min
Description: as §1, §2, §3
The strain was killed with 70% isopropyl ethanol for. 30 min. 10 ng/μl and 100 ng/μl EMA were added both to the viable control, and to the killed bacteria. The bacteria were exposed to EMA for 30, 1 min, 5 min, 10 min and 15 min. Exposure to 100 ng/μl for 5 min give the best discrimination with approximately 1 cycle difference for the viable bacteria, and 10 cycles (½^10) for the killed bacteria. […] For treated, i.e. dead bacteria, CT was at 20 PCR cycles for bacteria not exposed to EMA but at 30 for bacteria exposed to EMA.

16S rDNA gene (pure DNA) = test: PCR inhibitory effect of photoactivated and unactivated EMA on pure DNA (16S rDNA PCR, agarose gel); type: biochemical
Description: The PCR inhibitory effects of both photoactivated, and unactivated EMA were investigated for pure DNA. PCR amplifications were carried out on dilution series of 1000, 100 and 10 μg/ml EMA. The 16S rDNA gene was amplified through the application of the forward primer 5′[…]3′ and the reverse primer 5′[…]3′. These primer sites are universally conserved for eubacterial 16S rDNA.
The PCR amplifications were done using the GeneAmp 9700 PCR amplification system (PE biosystems, Norwalk, Conn., USA). The 50 μl PCR reactions contained 10 pmol of each primer, 200 μM dNTP, 10 mM Tris-HCl (pH 8.8), 1.5 mM MgCl2, 50 mM KCl, 0.1% Triton® x-100, 1 U DynaZyme™ Thermostable DNA Polymerase (Finnzymes OY, Espoo, Finland) and 2 ng template. The cycling parameters were: 94° C. for 30 s, 55° C. for 30 s and 72° C. for 1 minute.
The cycling step was repeated 25 times. The samples were heated to 94° C. for 5 minutes prior to the amplification, and an extension step at 72° C. for 7 minutes was included after completion of the amplification reactions.
For each dilution series PCR was employed both on samples where EMA had been covalently photoactivated to DNA through illumination with a Luxor 18W type FL-185 lamp (Luxor ASA, Oslo, Norway) at 5 cm for 15 minutes, and on samples where EMA had been added to the DNA in the dark. […] For 100 and 10 μg/ml, the photoactivated EMA inhibited PCR, while PCR for the unactivated EMA was not inhibited (FIG. 1). 10 μg/ml amplification products were separated on a 1% agarose gel for 45 minutes at 100 volts. The conclusion from these experiments is that EMA covalently bound to DNA is sufficient to inhibit PCR amplification, and that EMA by itself is only inhibitory to PCR at high concentrations.

[1] = tested on: purified DNA from C. jejuni; test: DNase treatment of purified DNA, 5'-nuclease PCR; type: biochemical; settings: after 30 minutes of DNase treatment
Description: (§4) Amplification reactions (50 μl) contained a DNA sample (1 μl), 1× TaqMan™ Buffer A, 5 mM MgCl2, 200 μM dATP, dCTP, dGTP, and 400 μM dUTF, 0.02 μM. C. Jejuni specific probe, 0.3 μM C. jejuni specific primers—see Table 1 below (each), 1 U AmpErase™ Uracil N-glycosylase (UNG), and 2.5 U AmpliTaq Gold™ DNA polymerase.
(§5) Before amplification, the PCR mixture was heated to 50° C. in 5 min to let the UNG destroy possibly contaminating PCR products, and 95° C. for 10 min to denature the template DNA. Amplification, profile: 40 cycles of 95° C. for 20 seconds and 60° C. for one minute. Reactions were performed in the ABI Prism® 7700 Sequence Detection System (PE Biosystems, Foster City, Calif., USA). Reaction conditions were programmed and data were analyzed on a power Macintosh 4400/20 (Apple Computer, Santa Clara, Calif., USA) linked directly to the ABE prism® 7700 Sequence Detection system using the SDS 1.6.3 application software (PE Biosystems, Foster City, Calif., USA) as described by the manufacturer.
The amplification was plotted as ΔRn, which was the normalized reporter signal (reporter signal minus background), against number of cycles. […] This gave threshold cycles (CT), which is defined as the PCR cycle where an increase in fluorescence first occurred, for each amplification plot. […]

[2] = tested on: Campylobacter jejuni type strain DSMZ 4688; test: Effect of externally added DNase on DNA in heat-treated cells, 5'-nuclease PCR; type: cell-based; settings: for reduction of the signal compared to control without DNase: 10 U DNase
Description: The effect on the DNA stability at room temperature after heat-treatment of the cultures, and after addition of DNase was investigated. 1.7±0.8×10^7 cells (with DNase) and 5.0±0.6×10^7 cells (without DNase) of C. jejuni type strain were used in these experiments. […] One set of tubes were then incubated further at room temperature, and samples for PCR analysis removed at intervals of 5, 15, and 30 min, 1 h, 6 and 24 hrs, and 5 days. 10 U RQl DNase (Promega, Madison, Wis., USA) and 1× DNase buffer were added to another set of tubes before the incubation at room temperature. Aliquots were analyzed after 5, 15 and 30 min, and after 1 hr, 6 and 24 hours. For the PCR analysis, DNA was purified from 10 μl aliquots from the respective time-points, and the subsequent 5′-nuclease PCR assay performed as described below.
Dynabeads® DNA Direct I (Dynal AS, Oslo, Norway), 200 μl, were then added to the suspension of bacteria, and the bacteria-bead suspension was incubated at 65° C. for 20 minutes, followed by incubation at room temperature for another 2 minutes. DNA bound to magnetic beads was then drawn to the wall of the microcentrifuge tube by a magnet (MPC®-E, Dynal AS, Oslo, Norway) for 2 minutes. The supernatant containing salts, detergent and cell debris was carefully removed without disrupting the Dynabeads/DNA complex. The beads were washed twice with a washing buffer (buffer 2 from the kit). Finally, the DNA was removed from the beads by resuspending in 40 μl 10 mM Tris HCl, pH 8.0 (buffer 3 from the kit), and incubation at 65° C. for 5 minutes. The beads, now released from the DNA, were collected with the magnet, and the DNA-containing supernatant was transferred to a fresh tube and used directly in the PCR.
as §4, §5
The amplification was plotted as ΔRn, which was the normalized reporter signal (reporter signal minus background), against number of cycles. […] This gave threshold cycles (CT), which is defined as the PCR cycle where an increase in fluorescence first occurred, for each amplification plot. […] The CT-values were plotted against log input DNA/cells and gave standard curves for quantification of unknown samples and possibilities to estimate the amplification efficiency in the reaction (Heid, C. A., J. Stevens, K. J. Livak and P. M. Williams, 1996, Real time quantitative PCR, Genome Research 6: 986-994; PE Biosystems, 1997, User bulletin 2; ABI PRISM 7700 Sequence Detection System). […]

With `CC[n+]1c(-c2ccccc2)c2cc(N=[N+]=[N-])ccc2c2ccc(N)cc21.[Br-]` [EMA, ethidium bromide monoazide] the “amplification efficiency for the living bacteria” value (E. coli; EMA 100 μg/ml) was “reduced the amplification efficiency”, the “discrimination between the viable and dead bacteria” value (E. coli; EMA increased to 100 μg/ml) was “did not result in a better discrimination” and the “difference in PCR signal intensities between the treated sample and the control” value (E. coli; bacteria killed by heat (95° C.), EMA 10 μg/ml) was “about 100%”. The “difference in PCR signal intensities between the treated sample and the control” value (E. coli; bacteria killed with ethanol, EMA 10 μg/ml) was “about 100%”, the PCR inhibition (E. coli; ethanol killed bacteria (double-stranded DNA)) was 100% and the “difference in PCR signal intensities between the treated sample and the control” value (E. coli; formaldehyde treated sample, EMA 10 μg/ml) was 85%. For the same compound, the PCR inhibition (E. coli; heat killed bacteria (single-stranded DNA)) was 100%, the “difference in PCR signal intensities between the controls and the EMA sample” value (E. coli; living bacteria, EMA 10 μg/ml) was “no differences” and the “difference in the PCR cycles (ΔCT) until a detectable signal” value (purified DNA; EMA 2, 20 and 100 ng/μl (all concentrations tested), after light exposure) was “approximately 12”. For the same compound, the “time at which the binding reaction was complete” value (purified DNA; light exposure, EMA 2-100 ng/μl) was “about 30 s”, the “fraction of DNA that could serve as a PCR template after covalent binding of EMA” value (purified DNA; ½^12, from ΔCT) was 0,000244 and the “difference between the control and the test sample” value (DNA) was “no significant difference”. It also gave a PCR cycle difference (E. coil 0157 strain 765; killed bacteria (70% isopropyl ethanol 30 min)) of about 10 cycles, a CT (E. coil 0157 strain 765; treated, i.e. dead bacteria exposed to EMA) of 30 PCR cycles and a CT (E. coil 0157 strain 765; untreated, i.e. viable bacteria exposed to EMA) of 21 cycles. The PCR cycle difference (E. coil 0157 strain 765; viable bacteria) was “approximately 1 cycle”, the PCR inhibition (16S rDNA gene (pure DNA); non activated EMA (added in the dark), 1000 μg/ml) was “inhibited the PCR reaction” and the PCR inhibition (16S rDNA gene (pure DNA); photoactivated EMA, 10 μg/ml) was “inhibited PCR”. For the same compound, the PCR inhibition (16S rDNA gene (pure DNA); photoactivated EMA, 100 μg/ml) was “inhibited PCR”, the PCR inhibition (16S rDNA gene (pure DNA); photoactivated EMA, 1000 μg/ml) was “inhibited the PCR reaction” and the PCR inhibition (16S rDNA gene (pure DNA); unactivated EMA, 10 μg/ml) was “not inhibited”. For the same compound, the PCR inhibition (16S rDNA gene (pure DNA); unactivated EMA, 100 μg/ml) was “not inhibited”.

With DNase the “input material (DNA) left” value [1] was “about 0.01%”, the “reduction of the signal compared to control without DNase” value (“reduction … to control without DNase” for short) ([2]; cells heated at 72° C. for 5 min) was 1 log and the “reduction … to control without DNase” value ([2]; cells heated at 100° C. for 5 min) was 1 log. The “reduction … to control without DNase” value ([2]; cells heated at 121° C. for 15 min) was 1 log, the “difference between the DNase treated samples and the control” value ([2]; cells incubated at 20° C.) was “little difference” and the “difference between the DNase treated samples and the control” value ([2]; cells incubated at 55° C.) was “little difference”.

From US7262009B2, “Method of cell detection” (Matforsk; Norwegian Food Research Institute, priority 2000, dated 2007)
